In US20050229276A1, “Method of producing cyclamen root tuber and method of proliferating cyclamen using the same” (Tokyo University of Agricultural, priority 2002, published 2005):

System: cyclamen (cultivar: Dressy Scarlet) seedling
Assay: Growth of root tubers at cut root ends of seedlings in solid media
Assay type: in vivo
Method: A cyclamen (cultivar: Dressy Scarlet) seed was immersed in an ethyl alcohol aqueous solution having an ethyl alcohol concentration of 70 wt % for 10 seconds and in a sodium hypochlorite solution having an effective chlorine concentration of 1 wt % for 10 minutes to sterilize the surface of the seed. Thereafter, this seed was washed in sterilized water 3 times to remove the sodium hypochlorite from the surface of the seed. This was sown in an MS solid medium containing 30 g/l of sucrose and 6 g/l of agar under a germ-free condition and cultured at a temperature of 20° C. under weak light for 30 days to be germinated and rooted.
The end portions of the roots of the above germinated and rooted cyclamen seedling were cut off with a scalpel, and the seedling was planted in the following solid media. As the media, a large number of experimental plots were prepared by adding NAA and BA as phytohormones to the ⅓ MS medium in concentrations shown in Tables 1 to 3 and further adding 30 to 90 g/l of sucrose. 6 g/l of agar was added to all of the media which were then sterilized in an autoclave to prepare media having a pH of 7.0. 10 ml of each of the solid media was placed in a 50 ml culture test tube. The stationary culture of the seedling planted in each of the media was carried out at 20° C. under weak light for a certain number of days to grow root tubers at the end portions of its roots.

[1] = sucrose 30 g/l, BA 1.0 mg/l, NAA 0.05 mg/l, 30-th day
[2] = sucrose 30 g/l, BA 10.0 mg/l, NAA 0.00 mg/l, 30-th day
[3] = sucrose 30 g/l, BA 10.0 mg/l, NAA 0.01 mg/l, 30-th day
[4] = sucrose 30 g/l, BA 10.0 mg/l, NAA 0.05 mg/l, 30-th day
[5] = sucrose 50 g/l, BA 0.1 mg/l, NAA 0.00 mg/l, 30-th day
[6] = sucrose 50 g/l, BA 0.1 mg/l, NAA 0.01 mg/l, 30-th day
[7] = sucrose 50 g/l, BA 0.1 mg/l, NAA 0.05 mg/l, 30-th day
[8] = sucrose 50 g/l, BA 1.0 mg/l, NAA 0.00 mg/l, 30-th day
[9] = sucrose 50 g/l, BA 1.0 mg/l, NAA 0.01 mg/l, 30-th day
[10] = sucrose 50 g/l, BA 1.0 mg/l, NAA 0.05 mg/l, 30-th day
[11] = sucrose 50 g/l, BA 10.0 mg/l, NAA 0.00 mg/l, 30-th day
[12] = sucrose 50 g/l, BA 10.0 mg/l, NAA 0.01 mg/l, 30-th day
[13] = sucrose 50 g/l, BA 10.0 mg/l, NAA 0.05 mg/l, 30-th day
[14] = sucrose 70 g/l, BA 0.1 mg/l, NAA 0.01 mg/l, 30-th day
[15] = sucrose 70 g/l, BA 0.1 mg/l, NAA 0.05 mg/l, 30-th day
[16] = sucrose 70 g/l, BA 1.0 mg/l, NAA 0.00 mg/l, 30-th day
[17] = sucrose 70 g/l, BA 1.0 mg/l, NAA 0.01 mg/l, 30-th day
[18] = sucrose 70 g/l, BA 1.0 mg/l, NAA 0.05 mg/l, 30-th day
[19] = sucrose 70 g/l, BA 10.0 mg/l, NAA 0.00 mg/l, 30-th day
[20] = sucrose 70 g/l, BA 10.0 mg/l, NAA 0.01 mg/l, 30-th day
[21] = sucrose 70 g/l, BA 10.0 mg/l, NAA 0.05 mg/l, 30-th day

c1ccc(CNc2ncnc3[nH]cnc23)cc1 [BA, benzylaminopurine]
Number of large root tubers (diameter of 1 mm or more) [1]: 6 | Total number of root tubers [1]: 7 | Number of large root tubers (diameter of 1 mm or more) [2]: 6 | Total number of root tubers [2]: 11 | Number of large root tubers (diameter of 1 mm or more) [3]: 5 | Total number of root tubers [3]: 5 | Number of large root tubers (diameter of 1 mm or more) [4]: 4 | Total number of root tubers [4]: 8 | Number of large root tubers (diameter of 1 mm or more) [5]: 1 | Total number of root tubers [5]: 2 | Number of large root tubers (diameter of 1 mm or more) [6]: 0 | Total number of root tubers [6]: 1 | Average number of root tubers (per a seedling) [7]: 2.8 | Number of large root tubers (diameter of 1 mm or more) [7]: 7 | Total number of root tubers [7]: 14 | Average number of root tubers (per a seedling) (sucrose 50 g/l, BA 0.1 mg/l, NAA 0.05 mg/l, 50-th day): 2.8 | Number of large root tubers (diameter of 1 mm or more) [8]: 11 | Total number of root tubers [8]: 16 | Number of large root tubers (diameter of 1 mm or more) [9]: 11 | Total number of root tubers [9]: 16 | Average number of root tubers (per a seedling) [10]: 4.8 | Number of large root tubers (diameter of 1 mm or more) [10]: 4 | Total number of root tubers [10]: 9 | Average number of root tubers (per a seedling) (sucrose 50 g/l, BA 1.0 mg/l, NAA 0.05 mg/l, 50-th day): 4.8 | Average number of root tubers (per a seedling) (sucrose 50 g/l, BA 2.0 mg/l, NAA 0.05 mg/l, 30-th day): 0.6 | Average number of root tubers (per a seedling) (sucrose 50 g/l, BA 2.0 mg/l, NAA 0.05 mg/l, 50-th day): 0.6 | Average number of root tubers (per a seedling) (sucrose 50 g/l, BA 5.0 mg/l, NAA 0.05 mg/l, 30-th day): 1.8 | Average number of root tubers (per a seedling) (sucrose 50 g/l, BA 5.0 mg/l, NAA 0.05 mg/l, 50-th day): 1.8 | Number of large root tubers (diameter of 1 mm or more) [11]: 6 | Total number of root tubers [11]: 7 | Number of large root tubers (diameter of 1 mm or more) [12]: 3 | Total number of root tubers [12]: 10 | Number of large root tubers (diameter of 1 mm or more) [13]: 4 | Total number of root tubers [13]: 8 | Number of large root tubers (diameter of 1 mm or more) [14]: 4 | Total number of root tubers [14]: 8 | Average number of root tubers (per a seedling) [15]: 4.4 | Number of large root tubers (diameter of 1 mm or more) [15]: 12 | Total number of root tubers [15]: 14 | Average number of root tubers (per a seedling) (sucrose 70 g/l, BA 0.1 mg/l, NAA 0.05 mg/l, 50-th day): 4.4 | Number of large root tubers (diameter of 1 mm or more) [16]: 11 | Total number of root tubers [16]: 16 | Number of large root tubers (diameter of 1 mm or more) [17]: 11 | Total number of root tubers [17]: 19 | Average number of root tubers (per a seedling) [18]: 0.8 | Number of large root tubers (diameter of 1 mm or more) [18]: 9 | Total number of root tubers [18]: 11 | Average number of root tubers (per a seedling) (sucrose 70 g/l, BA 1.0 mg/l, NAA 0.05 mg/l, 50-th day): 0.8 | Average number of root tubers (per a seedling) (sucrose 70 g/l, BA 2.0 mg/l, NAA 0.05 mg/l, 30-th day): 3.2 | Average number of root tubers (per a seedling) (sucrose 70 g/l, BA 2.0 mg/l, NAA 0.05 mg/l, 50-th day): 3.2 | Average number of root tubers (per a seedling) (sucrose 70 g/l, BA 5.0 mg/l, NAA 0.05 mg/l, 30-th day): 1.0 | Average number of root tubers (per a seedling) (sucrose 70 g/l, BA 5.0 mg/l, NAA 0.05 mg/l, 50-th day): 1.0 | Number of large root tubers (diameter of 1 mm or more) [19]: 3 | Total number of root tubers [19]: 3 | Number of large root tubers (diameter of 1 mm or more) [20]: 3 | Total number of root tubers [20]: 3 | Number of large root tubers (diameter of 1 mm or more) [21]: 8 | Total number of root tubers [21]: 14 | Average number of root tubers (per a seedling) (sucrose 90 g/l, BA 0.1 mg/l, NAA 0.05 mg/l, 30-th day): 2.4 | Average number of root tubers (per a seedling) (sucrose 90 g/l, BA 0.1 mg/l, NAA 0.05 mg/l, 50-th day): 2.4 | Average number of root tubers (per a seedling) (sucrose 90 g/l, BA 1.0 mg/l, NAA 0.05 mg/l, 30-th day): 1.6 | Average number of root tubers (per a seedling) (sucrose 90 g/l, BA 1.0 mg/l, NAA 0.05 mg/l, 50-th day): 1.6 | Average number of root tubers (per a seedling) (sucrose 90 g/l, BA 2.0 mg/l, NAA 0.05 mg/l, 30-th day): 1.0 | Average number of root tubers (per a seedling) (sucrose 90 g/l, BA 2.0 mg/l, NAA 0.05 mg/l, 50-th day): 1.0 | Average number of root tubers (per a seedling) (sucrose 90 g/l, BA 5.0 mg/l, NAA 0.05 mg/l, 30-th day): 0.8 | Average number of root tubers (per a seedling) (sucrose 90 g/l, BA 5.0 mg/l, NAA 0.05 mg/l, 50-th day): 0.8
